Experimental data from patent publication US4880809A, “1,4-disubstituted piperazines (or homopiperazines) as platelet-activating factor antagonists” (Takeda Chemical Industries, Ltd., priority 1987, dated 1989).
Counter-ions that a name gives are not always drawn.

Tests used:
[1] = system: PAF-Induced Hypotension; assay: Inhibitory Action on PAF-Induced Hypotension; type: in vivo, SD (Jcl) male rats; conditions: po, 30 mg/kg p.o., rat
Procedure: SD (Jcl) male rats of 6 to 8 week old were subjected to the experiment. After fasting overnight, the rats were cannulated into the femoral artery and vein under anesthesia with pentobarbital. A transducer (MPU-0.5-290O-III, TOYO BALDWIN, Japan) was connected with the artery cannula, and blood pressure was continuously measured. […] The rate of inhibition of lowering of blood pressure after administration of the test samples against the control was evaluated.

[2] = system: PAF-Induced Platelet Aggregation; assay: Inhibitory Action on PAF-Induced Platelet Aggregation; type: cell-based, New Zealand white male rabbits; conditions: Oryctolagus cuniculus, Drug Concentration: 3 × 10^-5 M, rabbit PRP
Procedure: Blood was collected from the hearts of conscious New Zealand white male rabbits weighing 2 to 3 kg using citric acid as an anticoagulant (one volume part of 3.15% citric acid per 9 volume parts of the whole blood). The blood was subjected to a centrifuge at 800 rpm for ten minutes to obtain platelet rich plasma (PRP). The remaining blood after collecting the PRP was subjected to a centrifuge at 3000 rpm for ten minutes to obtain platelet poor plasma (PPP). PRP was diluted with PPP, and the number of platelets was adjusted to 500,000/μl. Platelet aggregation was examined by means of turbidimetry [Born, Nature, 194, 927-929 (1962)] with 8 channel aggregometer (NBS HEMA TRACER 6 Nikoh, Bioscience, Japan). More concretely, PRP (250 μl) was kept warm (37° C.) for three minutes in a silicon-processed cuvette, to which was added a test sample (25 μl) dissolved in a physiological saline or in 10mM dimethylsulfoxide followed by dilution with a physiological saline. Two minutes later, PAF (25 μl, 3×10^-9 -1×10^-8 M), dissolved in a physiological saline, was added and then the maximum aggregation rate was determined. As the control, physiological saline without test sample was added to the cuvette, and the inhibitory rate thereon was determined.

In the case of `COc1cc2c(cc1OC)CCC(C(=O)N1CCN(Cc3cc(OC)c(OC)c(OC)c3)CC1)=C2` [Example 5, 1-(6,7-dimethoxy-1,2-dihydro-3-naphthoyl)-4-(3,4,5-trimethoxybenzyl)piperazine hydrochloride], the inhibition in vivo at 30 mg/kg ([1]; after 1 hr) is reported as 77%, the inhibition in vivo at 30 mg/kg ([1]; after 2 hrs) is reported as 75% and the inhibition in vivo at 30 mg/kg ([1]; after 4 hrs) is reported as 49%. It also gave an inhibition at 30 µM [2] of 100%.
Compound `COc1cc(CN2CCN(C(=O)c3ccc4c(OC)c(OC)c(OC)cc4c3)CC2)cc(OC)c1OC` [Example 12, 1-(3,4,5-trimethoxybenzyl)-4-(5,6,7-trimethoxy)-2-naphthoyl)piperazine hydrochloride] has an inhibition at 30 µM [2] of 100%.
Work on `CCCCOc1ccc2c(c1)CCC(C(=O)N1CCN(Cc3cc(OC)c(OC)c(OC)c3)CC1)=C2` [Example 15, 1-(7-butoxy-1,2-dihydro-3-naphthoyl)-4-(3,4,5-trimethoxybenzyl)piperazine hydrochloride] yielded an inhibition at 30 µM [2] of 100%.
With `CCCCOc1ccc2cc(C(=O)N3CCN(Cc4cc(OC)c(OC)c(OC)c4)CC3)ccc2c1` [Example 17, 1-(6-butoxy-2-naphthoyl)-4(3,4,5-trimethoxybenzyl)piperazine hydrochloride] the inhibition at 30 µM [2] was 97%.
Work on `COc1cc2ccc(C(=O)N3CCN(Cc4cc(OC)c(OC)c(OC)c4)CC3)cc2cc1OC` [Example 21, 1-(6,7-dimethoxy-2-naphthoyl)-4-(3,4,5-trimethoxybenzyl)piperazinehydrochloride] yielded an inhibition at 30 µM [2] of 93%.
With `CCCCOc1cc2ccc(C(=O)N3CCN(Cc4cc(OC)c(OC)c(OC)c4)CC3)cc2cc1OCCCC` [Example 23, 1-(6,7-dibutoxy-2-naphthoyl)-4-(3,4,5-trimethoxybenzyl)piperazine hydrochloride] the inhibition at 30 µM [2] was 100%.
Work on `COc1cc2ccccc2cc1C(=O)N1CCN(Cc2cc(OC)c(OC)c(OC)c2)CC1` [Example 24, 1-(3-methoxy-2-napththoyl)-4-(3,4,5-trimethoxybenzyl)piperazine hydrochloride] yielded an inhibition at 30 µM [2] of 100%.
`COc1cc(CN2CCN(C(=O)c3ccc4c(c3)C(=O)c3ccccc3C4=O)CC2)cc(OC)c1OC` [Example 26, 1-(2-anthraquinonylcarbonyl)-4-(3,4,5-trimethoxybenzyl)piperazine] was tested, and the inhibition at 30 µM [2] was 91%.
Work on `COc1cc(CN2CCN(C(=O)C3=Cc4cc(OCc5ccccc5)c(OCc5ccccc5)cc4CC3)CC2)cc(OC)c1OC` [Example 28, 1-(6,7-dibenzyloxy-1,2-dihydro-3-naphthoyl)-4-(3,4,5-trimethoxybenzyl)piperazine hydrochloride] yielded an inhibition at 30 µM [2] of 87%.
`COc1cc(CN2CCN(C(=O)C3=Cc4ccc(OCc5ccccc5)cc4CC3)CC2)cc(OC)c1OC` [Example 32, 1-(7-benzyloxy-1,2-dihydro-3-naphthoyl)-4-(3,4,5-trimethoxybenzyl)piperazine hydrochloride] was tested, and the inhibition at 30 µM [2] was 100%.
For `COc1cc(CN2CCN(C(=O)C3=Cc4cc(OC(C)=O)c(OC(C)=O)cc4CC3)CC2)cc(OC)c1OC` [Example 36, 1-(6,7-diacetyloxy-1,2-dihydro-3-naphthoyl)-4-(3,4,5-trimethoxybenzyl)piperazine fumarate], the inhibition at 30 µM [2] was 86%.
For `COc1cc(CN2CCN(C(=O)c3ccc4c(c3)C(=O)c3ccccc3-4)CC2)cc(OC)c1OC` [Example 38, 1-(9-oxo-2-fluorenylcarbonyl)-4-(3,4,5-trimethoxybenzyl)piperazine], the inhibition at 30 µM [2] was 85%.
With `COc1cc(CN2CCN(C(=O)c3ccc4c(c3)C(O)c3ccccc3-4)CC2)cc(OC)c1OC` (stereo not drawn) [Example 39, 1-(9-hydroxy-2-fluorenylcarbonyl)-4-(3,4,5-trimethoxybenzyl)piperazine hydrochloride] the inhibition in vivo at 30 mg/kg ([1]; after 1 hr) was 70%, the inhibition in vivo at 30 mg/kg ([1]; after 2 hrs) was 64% and the inhibition in vivo at 30 mg/kg ([1]; after 4 hrs) was 47%. It also gave an inhibition at 30 µM [2] of 100%.
With `COc1cc2ccc(C(=O)N3CCN(Cc4cc(OC)c(OC)c(OC)c4)CC3)c(O)c2cc1OC` [Example 41, 1-(6,7-dimethoxy-1-hydroxy-2-naphthoyl)-4-(3,4,5-trimethoxybenzyl)piperazine hydrochloride] the inhibition at 30 µM [2] was 97%.
Work on `COc1cc(CN2CCN(C(=O)C3=Cc4ccc(OC)c(OC)c4CCC3)CC2)cc(OC)c1OC` [Example 43, 1-(3,4-dimethoxy-6,7-dihydro-5H-benzocyclohepten-8-ylcarbonyl)-4-(3,4,5-trimethoxybenzyl)piperazine hydrochloride] yielded an inhibition at 30 µM [2] of 89%.
With `COc1cc2c(cc1OC)CCCC(C(=O)N1CCN(Cc3cc(OC)c(OC)c(OC)c3)CC1)=C2` [Example 49, 1-(2,3-dimethoxy-6,7-dihydro-5H-benzocyclohepten-8-ylcarbonyl)-4-(3,4,5-trimethoxybenzyl)piperazine hydrochloride] the inhibition in vivo at 30 mg/kg ([1]; after 1 hr) was 94%, the inhibition in vivo at 30 mg/kg ([1]; after 2 hrs) was 97% and the inhibition in vivo at 30 mg/kg ([1]; after 4 hrs) was 88%. It also gave an inhibition at 30 µM [2] of 100%.
`COc1cc2c(cc1OC)CCC(C(=O)N1CCN(C(=O)c3cc(OC)c(OC)c(OC)c3)CC1)=C2` [Example 56, 1-(6,7-dimethoxy-1,2-dihydro-3-naphthoyl)-4-(3,4,5-trimethoxybenzoyl)piperazine] was tested, and the inhibition in vivo at 30 mg/kg ([1]; after 1 hr) was 100%, the inhibition in vivo at 30 mg/kg ([1]; after 2 hrs) was 97% and the inhibition in vivo at 30 mg/kg ([1]; after 4 hrs) was 88%. For the same compound, the inhibition at 30 µM [2] was 100%.
Work on `CCOc1cc2c(cc1OCC)CCC(C(=O)N1CCN(Cc3cc(OC)c(OC)c(OC)c3)CC1)=C2` [Example 58, 1-(6,7-diethoxy-1,2-dihydro-3-naphthoyl)-4-(3,4,5-trimethoxybenzyl)piperazine hydrochloride] yielded an inhibition in vivo at 30 mg/kg ([1]; after 1 hr) of 88%, an inhibition in vivo at 30 mg/kg ([1]; after 2 hrs) of 95% and an inhibition in vivo at 30 mg/kg ([1]; after 4 hrs) of 65%. It also gave an inhibition at 30 µM [2] of 100%.
For `CCCOc1cc2c(cc1OCCC)CCC(C(=O)N1CCN(Cc3cc(OC)c(OC)c(OC)c3)CC1)=C2` [Example 60, 1-(6,7-dipropoxy-1,2-dihydro-3-naphthoyl)-4-(3,4,5-trimethoxybenzyl)-piperazine hydrochloride], the inhibition in vivo at 30 mg/kg ([1]; after 1 hr) was 79%, the inhibition in vivo at 30 mg/kg ([1]; after 2 hrs) was 69% and the inhibition in vivo at 30 mg/kg ([1]; after 4 hrs) was 60%. The inhibition at 30 µM [2] was 100%.
With `CCOc1cc2c(cc1OCC)CCC(C(=O)N1CCN(C(=O)c3cc(OC)c(OC)c(OC)c3)CC1)=C2` [Example 65, 1-(6,7-diethoxy-1,2-dihydro-3-naphthoyl)-4-(3,4,5-trimethoxybenzoyl)piperazine] the inhibition in vivo at 30 mg/kg ([1]; after 1 hr) was 100%, the inhibition in vivo at 30 mg/kg ([1]; after 2 hrs) was 100% and the inhibition in vivo at 30 mg/kg ([1]; after 4 hrs) was 77%. For the same compound, the inhibition at 30 µM [2] was 100%.
`CCCOc1cc2c(cc1OCCC)CCC(C(=O)N1CCN(C(=O)c3cc(OC)c(OC)c(OC)c3)CC1)=C2` [Example 66, 1-(6,7-dipropoxy-1,2-dihydro-3-naphthoyl)-4-(3,4,5-trimethoxybenzoyl)piperazine] gave an inhibition in vivo at 30 mg/kg ([1]; after 1 hr) of 77%, an inhibition in vivo at 30 mg/kg ([1]; after 2 hrs) of 79% and an inhibition in vivo at 30 mg/kg ([1]; after 4 hrs) of 68%. For the same compound, the inhibition at 30 µM [2] was 100%.
For `CCOc1cc2c(cc1OCC)CCCC(C(=O)N1CCN(Cc3cc(OC)c(OC)c(OC)c3)CC1)=C2` [Example 72, 1-(2,3-diethoxy-6,7-dihydro-5H-benzocyclohepten-8-ylcarbonyl)-4-(3,4,5-trimethoxybenzyl)piperazine hydrochloride], the inhibition in vivo at 30 mg/kg ([1]; after 1 hr) was 98%, the inhibition in vivo at 30 mg/kg ([1]; after 2 hrs) was 99% and the inhibition in vivo at 30 mg/kg ([1]; after 4 hrs) was 75%. It also gave an inhibition at 30 µM [2] of 100%.
`COc1cc2c(cc1OC)CCCCC(C(=O)N1CCN(Cc3cc(OC)c(OC)c(OC)c3)CC1)=C2` [Example 84, 1-(2,3-dimethoxy-5,6,7,8-tetrahydrobenzocycloocten-9-ylcarbonyl)-1-(3,4,5-trimethoxybenzyl)piperazine hydrochloride] gave an inhibition in vivo at 30 mg/kg ([1]; after 1 hr) of 100%, an inhibition in vivo at 30 mg/kg ([1]; after 2 hrs) of 100% and an inhibition in vivo at 30 mg/kg ([1]; after 4 hrs) of 73%. For the same compound, the inhibition at 30 µM [2] was 100%.
With `COc1cc2c(cc1OC)CCCCC(C(=O)N1CCN(C(=O)c3cc(OC)c(OC)c(OC)c3)CC1)=C2` [Example 85, 1-(2,3-dimethoxy-5,6,7,8-tetrahydrobenzocycloocten-9-ylcarbonyl)-4-(3,4,5-trimethoxybenzoyl)piperazine] the inhibition in vivo at 30 mg/kg ([1]; after 1 hr) was 100%, the inhibition in vivo at 30 mg/kg ([1]; after 2 hrs) was 100% and the inhibition in vivo at 30 mg/kg ([1]; after 4 hrs) was 100%. The inhibition at 30 µM [2] was 100%.
